# Source: patent US7943551B2, “3-cyclopropyl-4-(3-thiobenzoyl) pyrazoles and their use as herbicides” (Bayer Cropscience AG, priority 2007, dated 2011)
# Assays:
# Format in all cases: in vivo
# [1] = tested on: Echinochloa crus galli; assay: Post-emergence herbicidal action; conditions: read-out: Herbicidal activity in % against ECHCG; for pest or weed control at 80 g/ha: 80 g of a.i./ha, visual scoring 3-4 weeks after treatment
# Protocol: (§1) Seeds of mono- and dicotyledonous harmful plants are placed in sandy loam in cardboard pots, covered with soil and grown in the greenhouse under good growth conditions. Two to three weeks after sowing, the test plants are treated at the three-leaf stage. The compounds according to the invention, which are formulated as wettable powders or as emulsion concentrates, are sprayed at an application rate of 600 to 800 l of water/ha (converted) in a dosage of 80 grams per hectare onto the surface of the green plant parts. The visual scoring of the damage to the harmful plants is carried out 3-4 weeks after the treatment. Here, the compounds of Nos. 1-39, 1-40, 1-1382 and 1-2091 show an activity of at least 90% against Echinochloa crus galli. The compounds of Nos. 1-3, 1-44 and 1-2091 shown an activity of at least 90% against Abutilon theophrasti. The compounds of Nos. 1-39, 1-40 and 1-1382 show an activity of at least 90% against Veronica persica. The compounds of Nos. 1-3, 1-38, 1-39, 1-1406 and 1-1407 show an activity of at least 90% against Stellaria media.
# (§2) The comparative tests of Tables 1 to 24 below show the superiority of the compounds according to the invention over the compounds known from the prior art.
# (§3) • ABUTH Abutilon theophrasti ALOMY Alopecurus myosuroides • AMARE Amaranthus retroflexus AVEFA Avena fatua • CHEAL Chenopodium album ECHCG Echinochloa crus galli • GALAP Galium aparine LOLMU Lolium multiflorum • MATIN Matricaria inodora PHBPU Pharbitis purpureum • POLCO Fallopia convolvulus STEME Stellaria media • VERPE Veronica persica VIOTR Viola tricolor • XANST Xanthium strumarium Crop Plants • GLXMA Glycine max (soybeans) TRZAS Triticum aestivum (wheat) • ZEAMX Zea mays (corn)
# [2] = tested on: Abutilon theophrasti; assay: Post-emergence herbicidal action; conditions: for pest or weed control at 20 g/ha / pest or weed control at 80 g/ha: Abutilon theophrasti, read-out: Herbicidal activity in % against ABUTH; for pest or weed control at 20 g/ha: 20 g of a.i./ha
# Protocol: as §1, with “The compounds according to the invention, which are formulated as wettable powders or as emulsion concentrates, are sprayed at an application rate of 600 to 800 l of water/ha (converted) in a dosage of 80 grams per hectare onto the surface of the green plant parts.” left out
# as §2, §3
# [3] = tested on: Xanthium strumarium; assay: Post-emergence herbicidal action; conditions: read-out: Herbicidal activity in % against XANST; for pest or weed control at 80 g/ha: 80 g of a.i./ha
# Protocol: as §1, §2, §3
# [4] = tested on: Viola tricolor; assay: Post-emergence herbicidal action; conditions: 80 g of a.i./ha, read-out: Herbicidal activity in % against VIOTR
# Protocol: as §1, §2, §3
# [5] = tested on: Viola tricolor; assay: Pre-emergence herbicidal action; conditions: 80 g of a.i./ha
# Excerpt: Seeds or rhizome pieces of mono- and dicotyledonous harmful plants are placed in sandy loam in pots of a diameter of 9 to 13 cm and covered with soil. The herbicides, formulated as emulsifiable concentrates or dusts, are applied to the surface of the covering soil in the form of aqueous dispersions or suspensions or emulsions at an application rate of 300 to 800 l of water/ha (converted), […] For further cultivation of the plants, the pots are then kept in a greenhouse under optimum conditions. The visual scoring of the damage to the harmful plants is carried out 3-4 weeks after the treatment. Here, the compounds of Nos. 1-3, 1-15, 1-44 and 1-1407 show an activity of at least 90% against Echinochloa crus galli. The compounds of Nos. 1-15, 1-45, 1-1407 and 1-1419 show an activity of at least 90% against Abutilon theophrasti. The compounds of Nos. 1-3, 1-45, 1-1406 and 1-1418 show an activity of at least 90% against Amaranthus retroflexus. The compounds of Nos. 1-44, 1-1406, 1-1407 and 1-1419 show an activity of at least 90% against Stellaria media.
# as §2, §3
# [6] = tested on: Stellaria media; assay: Post-emergence herbicidal action; conditions: 80 g of a.i./ha, visual scoring 3-4 weeks after treatment; for pest or weed control at 80 g/ha: Stellaria media, read-out: Herbicidal activity in % against STEME
# Protocol: as §1, §2, §3
# [7] = tested on: Matricaria inodora; assay: Post-emergence herbicidal action; conditions: Tripleurospermum inodorum, 80 g of a.i./ha, read-out: Herbicidal activity in % against MATIN
# Protocol: as §1, §2, §3
# [8] = tested on: Pharbitis purpureum; assay: Post-emergence herbicidal action; conditions: 80 g of a.i./ha
# Protocol: as §1, §2, §3
# [9] = tested on: Veronica persica; assay: Post-emergence herbicidal action; conditions: 80 g of a.i./ha, visual scoring 3-4 weeks after treatment, read-out: Herbicidal activity in % against VERPE
# Protocol: as §1, §2, §3
# [10] = 80 g of a.i./ha, visual scoring 3-4 weeks after treatment
smiles,measurement,setting,value
"CSc1c(C(F)(F)F)ccc(C(=O)c2c(C3CC3)nn(C)c2O)c1C [drawing 46, reference compound]",pest or weed control at 20 g/ha,[1]; 20 g of a.i./ha,60%
same,pest or weed control at 20 g/ha,[2],70%
Cc1c(C(=O)c2c(C3CC3)nn(C)c2O)ccc(S(C)(=O)=O)c1SCC1CC1 [drawing 29],pest or weed control at 80 g/ha,[3],90%
same,pest or weed control at 80 g/ha,[4],90%
same,pest or weed control at 80 g/ha,[1],100%
COCC[S+]([O-])c1c(S(C)(=O)=O)ccc(C(=O)c2c(C3CC3)nn(C)c2O)c1C (stereo not shown) [drawing 11],Herbicidal activity in % against VIOTR,[5],70%
"Cc1c(C(=O)c2c(C3CC3)nn(C)c2O)ccc(S(C)(=O)=O)c1SCC1CC1 [No. 1-38, 3-cyclopropyl-4-(3-cyclopropylmethylthio-2-methyl-4-methylsulfonylbenzoyl)-5-hydroxy-1-methylpyrazole]",pest or weed control at 80 g/ha,[6],≥ 90%
"CCSc1c(Cl)ccc(C(=O)c2c(C3CC3)nn(C)c2O)c1C [drawing 40, reference compound]",pest or weed control at 80 g/ha,[7],40%
same,Herbicidal activity in % against PHBPU,[8],40%
same,pest or weed control at 80 g/ha,[6],90%
same,pest or weed control at 80 g/ha,[1],80%
COCCSc1c(S(C)(=O)=O)ccc(C(=O)c2c(C3CC3)nn(C)c2O)c1Cl [drawing 51],Herbicidal activity in % against PHBPU,[8],60%
same,Herbicidal activity in % against STEME,[6],90%
same,pest or weed control at 80 g/ha,[9],100%
"CSc1c(S(C)(=O)=O)ccc(C(=O)c2c(C3CC3)nn(C)c2O)c1Cl [drawing 50, reference compound]",pest or weed control at 80 g/ha,[7],30%
same,pest or weed control at 80 g/ha,[4],60%
same,pest or weed control at 80 g/ha,[2]; [10],80%
COCCSc1c(S(C)(=O)=O)ccc(C(=O)c2c(C3CC3)nn(C)c2O)c1Cl [drawing 47],pest or weed control at 80 g/ha,[7],70%
same,pest or weed control at 80 g/ha,[4],70%
same,Herbicidal activity in % against ABUTH,[2]; [10],90%
"COCCSc1c(S(C)(=O)=O)ccc(C(=O)c2c(C3CC3)nn(C)c2O)c1Cl [No. 1-3, 4-(2-chloro-3-(2-methoxyethyl)thio-4-methylsulfonylbenzoyl)-3-cyclopropyl-5-hydroxy-1-methylpyrazole]",pest or weed control at 80 g/ha,[6],≥ 90%
same,pest or weed control at 80 g/ha,[2]; [10],≥ 90%
COCCSc1c(S(C)(=O)=O)ccc(C(=O)c2c(C3CC3)nn(C)c2O)c1C,pest or weed control at 80 g/ha,[3],90%
same,pest or weed control at 80 g/ha,[4],90%
same,pest or weed control at 80 g/ha,[1],90%
CC[S+]([O-])c1c(S(C)(=O)=O)ccc(C(=O)c2c(C3CC3)nn(C)c2O)c1C (stereo not shown),Herbicidal activity in % against VIOTR,[5],60%
Cn1nc(C2CC2)c(C(=O)c2ccc(Cl)c(SCC3CC3)c2Cl)c1O,pest or weed control at 20 g/ha,[3]; 20 g of a.i./ha,70%
same,pest or weed control at 20 g/ha,[2],60%
